In patent US8071606B2, “Substituted pyrazinone amides useful for activation of glucokinase” (Pfizer Inc., priority 2009, dated 2011):

Key:
[1] = target: T1, recombinant human glucokinase (beta cell isoform, His-tagged) (Homo sapiens, UniProt P35557); assay: Assay 1: activator potency and maximum activation at 5 mM glucose (coupled PK/LDH, NADH depletion, A340); type: biochemical; settings: for Emax: % Maximum Activation=(Va/Vo−1)×100; for EC50: glucokinase activation, pH 7.1, room temperature
T1 construct: Full-length glucokinase (beta cell isoform) was His-tagged at the N-terminus; His tag (N); made in house; host or cells: E. coli BL21(DE3), pBCGK vector
T1 sequence (P35557 1-465): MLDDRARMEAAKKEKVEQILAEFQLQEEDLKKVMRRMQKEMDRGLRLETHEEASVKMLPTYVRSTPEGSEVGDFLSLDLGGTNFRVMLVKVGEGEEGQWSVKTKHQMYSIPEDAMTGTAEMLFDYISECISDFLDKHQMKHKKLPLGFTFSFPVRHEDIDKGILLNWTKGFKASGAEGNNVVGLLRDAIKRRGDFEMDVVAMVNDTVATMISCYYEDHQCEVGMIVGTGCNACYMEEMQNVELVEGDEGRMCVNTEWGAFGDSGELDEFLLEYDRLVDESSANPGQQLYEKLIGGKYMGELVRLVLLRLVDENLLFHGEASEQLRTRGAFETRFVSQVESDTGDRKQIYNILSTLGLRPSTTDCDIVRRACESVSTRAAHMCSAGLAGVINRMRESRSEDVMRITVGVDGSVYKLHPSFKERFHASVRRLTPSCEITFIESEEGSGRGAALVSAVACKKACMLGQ
Procedure: (§1) Representative compounds of this invention were evaluated in biochemical assays (Assay 1 or Assay 2) to characterize their glucokinase activation properties. The recombinant human glucokinase protein utilized in both assays was prepared and purified as described below. • Beta Cell Glucokinase His-Tag Growth and Induction Conditions: BL21(DE3) cells (Invitrogen Corporation, Carlsbad, Calif.) containing pBCGK (C or N His) vector were grown at 37° C. (in 2XYT) until the OD600 was between 0.6-1.0. Expression was induced by addition of isopropylthiogalactoside to a final concentration of 0.1-0.2 mM to the cells which were then incubated overnight at 23° C. The next day, cells were harvested via centrifugation at 5000 rpm for 15 minutes at 4° C. The cell pellet was stored at −80° C. for future purification. • Beta Cell Glucokinase His-Tag Purification Conditions: A Ni-NTA (Quigan, Germantown, Md.) column (15-50 mL) was used for separation. Two buffers were prepared, 1) a lysis/nickel equilibration and wash buffer and 2) a nickel elution buffer. The lysis/equilibration/wash buffer was prepared as such: 25 mM HEPES buffer at pH 7.5, 250 mM NaCl, 20 mM imidazole, and 14 mM […] as final concentrations. The elution buffer was prepared as such: 25 mM HEPES at pH 7.5, 250 mM NaCl, 400 mM imidazole, and 14 mM β-mercaptoethanol as final concentrations. The buffers were each filtered with a 0.22 μm filter prior to use. The cell pellet (1 L culture) was resuspended in 300 mL of the lysis/equilibration buffer. The cells were then lysed (3 times) with a Microfluidics Model 110Y microfluidizer (Microfluidics Corporation, Newton, Mass.). The slurry was centrifuged with a Beckman Coulter Model LE-80K ultracentrifuge (Beckman Coulter, Fullerton, Calif.) at 40,000 rpm for 45 minutes at 4° C. The supernatant was transferred to a chilled flask. A volume of 20 μl was saved for gel analysis. A Pharmacia AKTA (GMI, Inc., Ramsey, Minn.) purification system was used for separation. The prime lines were purged with lysis/equilibration buffer. The Ni-NTA column was equilibrated with 200 mL of the lysis/equilibration buffer at a flow rate of 5 mL/minute. The supernantant was loaded over the column at 4 mL/minute and the flow-through was collected in a flask. The unbound proteins were washed with lysis/equilibration buffer at a flow rate of 5 mL/minute until the ultraviolet reaches baseline. The protein was then eluted from the column with the imidazole elution buffer via imidazole gradient 20 mM to 400 mM over 320 mL. The column was then stripped of any additional protein with 80 mL of the elution buffer. The elution fractions were each 8 mL, for a total yield of 50 samples. Fractions were analyzed by sodium dodecyl sulfate polyacrylamide (SDS-PAGE) and the fractions containing protein of interest were pooled and concentrated to 10 mL using ultrafiltration cell with a 10,000 molecular weight cut-off (MWCO) Millipore membrane (Sigma-Aldrich, St. Louis, Mo.) under nitrogen gas (60 psi). Protein was further purified by size exclusion chromatography (SEC) using a […] (320 mL) (Amersham Pharmacia, Uppsala, Sweden). SEC was equilibrated with 450 mL sizing buffer containing 25 mM HEPES pH 7.0, 50 mM NaCl, and 5 mM dithiothreitol. Concentrated protein was then loaded over SEC and elution with 400 mL sizing buffer was performed overnight at 0.5 mL/minute. The elution fractions were 5 mL each. The fractions were analyzed by SDS-PAGE and protein containing fractions were pooled. Concentration was measured using Bradford Assay/BSA Standard. Purified protein was stored in small aliquots at −80° C. Assay 1: Evaluating Activator Potency and Maximum Activation at 5 mM Glucose
Full-length glucokinase (beta cell isoform) was His-tagged at the N-terminus and purified by a Ni column followed by size exclusion chromatography as described above. […]

[2] = target: T2, recombinant human glucokinase (Homo sapiens, UniProt P35557); assay: Assay 2: activator potency in a matrix assay at multiple glucose concentrations (22 compound x 16 glucose concentrations); type: biochemical; settings: concentration of compound affording a 50% reduction in the enzyme's Km for glucose, read-out: Intrinsic EC50
T2 construct: His tag; made in house; host or cells: E. coli BL21(DE3), pBCGK vector
T2 sequence (P35557 1-465): T1 sequence (P35557 1-465)
Procedure: as §1, with “Concentrated protein was then loaded over SEC and elution with 400 mL sizing buffer was performed overnight at 0.5 mL/minute. The elution fractions were 5 mL each.” left out, “Purified protein was stored in small aliquots at −80° C. Assay 1: Evaluating Activator Potency and Maximum Activation at 5 mM Glucose” left out

Emax [1] [%] | EC50 [1] [µM] | EC50 [2] [µM] | SMILES
99 to 100 | 0.27 to 0.37 |  | Cc1ccc(NC(=O)[C@H](CC2CCCC2)n2cc(C(F)(F)F)ncc2=O)nc1 [Example 4, (S)-3-cyclopentyl-N-(5-methylpyridin-2-yl)-2-(2-oxo-5-(trifluoromethyl)pyrazin-1(2H)-yl)propanamide]
139 to 143 | 5.6 to 7.1 |  | O=C(Nc1cnccn1)[C@H](CC1CCCC1)n1cc(C(F)(F)F)ncc1=O [Example 3, (S)-3-cyclopentyl-2-(2-oxo-5-(trifluoromethyl)pyrazin-1(2H)-yl)-N-(pyrazin-2-yl)propanamide]
 |  | 1.25 | O=C(O)c1ccc(NC(=O)[C@H](CC2CCC2)n2cc(C(F)(F)F)ncc2=O)nc1 [Example 9, (S)-6-(3-cyclobutyl-2-(2-oxo-5-(trifluoromethyl)pyrazin-1(2H)-yl)propanamido)nicotinic acid]
 |  | 0.22 to 0.31 | O=C(O)c1ccc(NC(=O)[C@H](CC2CCCCC2)n2cc(C(F)(F)F)ncc2=O)nc1 [Example 5, (S)-6-(3-cyclohexyl-2-(2-oxo-5-(trifluoromethyl)pyrazin-1(2H)-yl)propanamido)nicotinic acid]
100 | 64 |  | Cc1ccc(NC(=O)[C@H](CC2CCOCC2)n2cc(C(F)(F)F)ncc2=O)nc1 [Example 1, (S)-N-(5-methylpyridin-2-yl)-2-(2-oxo-5-(trifluoromethyl)pyrazin-1(2H)-yl)-3-(tetrahydro-2H-pyran-4-yl)propanamide]
 |  | 3.3 | CC(C)C[C@@H](C(=O)Nc1ccc(C(=O)O)cn1)n1cc(C(F)(F)F)ncc1=O [Example 7, (S)-6-(4-methyl-2-(2-oxo-5-(trifluoromethyl)pyrazin-1(2H)-yl)pentanamido)nicotinic acid]
 |  | 2.3 | O=C(O)Cc1ccc(NC(=O)[C@H](CC2CCCC2)n2cc(C(F)(F)F)ncc2=O)nc1 [Example 8, (S)-2-(6-(3-cyclopentyl-2-(2-oxo-5-(trifluoromethyl)pyrazin-1(2H)-yl)propanamido)pyridin-3-yl)acetic acid]
 |  | 8.9 | O=C(O)c1ccc(NC(=O)[C@H](CC2CCOCC2)n2cc(C(F)(F)F)ncc2=O)nc1 [Example 6, (S)-6-(2-(2-oxo-5-(trifluoromethyl)pyrazin-1(2H)-yl)-3-(tetrahydro-2H-pyran-4-yl)propanamido)nicotinic acid]
117 | 0.453 |  | O=C(O)c1ccc(NC(=O)[C@H](CC2CCCC2)n2cc(C(F)(F)F)ncc2=O)nc1 [Example 2, (S)-6-(3-cyclopentyl-2-(2-oxo-5-(trifluoromethyl)pyrazin-1(2H)-yl)propanamido)nicotinic acid]
